Experimental data published in the NIST ThermoML archive (doi:10.1016/j.jct.2011.10.014).
Numbers after ± are expanded uncertainties.

Settings: 101.33 kPa, Crystal, Vacuum adiabatic calorimetry

## O=C([O-])[O-].[Pb+2] [lead(II) carbonate]
5 K
  molar entropy: 0.0215 ± 0.015 J/K/mol
10 K
  molar entropy: 0.2771 ± 0.018 J/K/mol
15 K
  molar entropy: 1.17 ± 0.027 J/K/mol
20 K
  molar entropy: 2.745 ± 0.038 J/K/mol
25 K
  molar entropy: 4.823 ± 0.048 J/K/mol
30 K
  molar entropy: 7.25 ± 0.082 J/K/mol
35 K
  molar entropy: 9.921 ± 0.09 J/K/mol
40 K
  molar entropy: 12.76 ± 0.1 J/K/mol
45 K
  molar entropy: 15.72 ± 0.11 J/K/mol
50 K
  molar entropy: 18.76 ± 0.12 J/K/mol
55 K
  molar entropy: 21.83 ± 0.13 J/K/mol
60 K
  molar entropy: 24.93 ± 0.14 J/K/mol
65 K
  molar entropy: 28.02 ± 0.14 J/K/mol
70 K
  molar entropy: 31.09 ± 0.15 J/K/mol
75 K
  molar entropy: 34.13 ± 0.16 J/K/mol
80 K
  molar entropy: 37.12 ± 0.17 J/K/mol
85 K
  molar entropy: 40.07 ± 0.18 J/K/mol
90 K
  molar entropy: 42.97 ± 0.36 J/K/mol
95 K
  molar entropy: 45.81 ± 0.37 J/K/mol
100 K
  molar entropy: 48.59 ± 0.37 J/K/mol
110 K
  molar entropy: 53.97 ± 0.38 J/K/mol
120 K
  molar entropy: 59.11 ± 0.39 J/K/mol
130 K
  molar entropy: 64.03 ± 0.4 J/K/mol
140 K
  molar entropy: 68.74 ± 0.4 J/K/mol
150 K
  molar entropy: 73.25 ± 0.41 J/K/mol
160 K
  molar entropy: 77.6 ± 0.42 J/K/mol
170 K
  molar entropy: 81.78 ± 0.42 J/K/mol
180 K
  molar entropy: 85.81 ± 0.43 J/K/mol
190 K
  molar entropy: 89.7 ± 0.43 J/K/mol
200 K
  molar entropy: 93.46 ± 0.44 J/K/mol
210 K
  molar entropy: 97.11 ± 0.45 J/K/mol
220 K
  molar entropy: 100.6 ± 0.5 J/K/mol
230 K
  molar entropy: 104.1 ± 0.5 J/K/mol
240 K
  molar entropy: 107.4 ± 0.5 J/K/mol
250 K
  molar entropy: 110.7 ± 0.5 J/K/mol
260 K
  molar entropy: 113.9 ± 0.5 J/K/mol
270 K
  molar entropy: 117 ± 0.5 J/K/mol
273.15 K
  molar entropy: 118 ± 0.5 J/K/mol
280 K
  molar entropy: 120.1 ± 0.5 J/K/mol
290 K
  molar entropy: 123 ± 0.5 J/K/mol
298.15 K
  molar entropy: 125.4 ± 0.7 J/K/mol
300 K
  molar entropy: 126 ± 0.5 J/K/mol
310 K
  molar entropy: 128.9 ± 0.5 J/K/mol
320 K
  molar entropy: 131.7 ± 0.5 J/K/mol
